Measurements reported in DBAASP.
Converted amounts (≈) assume the structure as drawn.

Legend:
Assay in all cases: ≥ marks a high value that may be exact or a test limit, other limits are often not marked, values filed in µg/mL are converted to µM
[1] = system: Candida albicans NCYC 1467
[2] = system: Staphylococcus aureus NCTC 12493
[3] = system: Staphylococcus aureus NCTC 10788
[4] = system: Escherichia coli NCTC 10418
[5] = system: Enterococcus faecalis NCTC 12697
[6] = system: Pseudomonas aeruginosa ATCC 27853
[7] = system: Staphylococcus aureus ATCC 12493
[8] = system: Candida albicans NCPF 1467
[9] = system: Escherichia coli ATCC 25922
Escherichia coli = system: Escherichia coli
[10] = system: Pseudomonas aeruginosa PAO1
[11] = system: Pseudomonas aeruginosa CICC 21625
Escherichia coli K88 = system: Escherichia coli K88
Acinetobacter baumannii = system: Acinetobacter baumannii
[12] = system: Pseudomonas aeruginosa CICC 21630
Klebsiella pneumoniae = system: Klebsiella pneumoniae
Escherichia coli UB1005 = system: Escherichia coli UB1005
[13] = system: Salmonella enterica subsp. enterica serovar Typhimurium ATCC 14028
[14] = system: Salmonella enterica subsp. enterica serovar Pullorum C79-13
Escherichia coli K99 = system: Escherichia coli K99
Pseudomonas aeruginosa = system: Pseudomonas aeruginosa
[15] = system: Salmonella enterica subsp. enterica serovar Typhimurium C77-31

SMILES	MIC [3]	MIC [4]	MIC [5]	MIC [6]	MIC [7]	MIC [9]	MIC (Escherichia coli)	MIC [10]	MIC [11]	MIC (Escherichia coli K88)	MIC (Acinetobacter baumannii)	MIC [12]	MIC (Klebsiella pneumoniae)	MIC (Escherichia coli UB1005)	MIC [13]	MIC [14]	MIC (Escherichia coli K99)	MIC (Pseudomonas aeruginosa)	MIC [15]	other results
CC[C@H](C)[C@H](N)C(=O)N[C@@H](CCCCN)C(=O)N1CCC[C@H]1C(=O)N[C@H](C(=O)N[C@H](C(=O)N[C@@H](CCCCN)C(=O)N1CCC[C@H]1C(=O)N[C@H](C(=O)N[C@H](C(=O)N[C@@H](CCCCN)C(=O)N1CCC[C@H]1C(=O)N[C@H](C(=O)N[C@H](C(=O)N[C@@H](CCCCN)C(=O)N1CCC[C@H]1C(=O)N[C@H](C(=O)N[C@H](C(=O)N[C@@H](CCCCN)C(=O)N1CCC[C@H]1C(=O)N[C@H](C(N)=O)[C@@H](C)CC)[C@@H](C)CC)[C@@H](C)CC)[C@@H](C)CC)[C@@H](C)CC)[C@@H](C)CC)[C@@H](C)CC)[C@@H](C)CC)[C@@H](C)CC [IKPIIKPIIKPIIKPIIKPI]	–	–	–	> 64 µM	–	> 64 µM	> 64 µM	> 64 µM	≥ 64 µM	≥ 64 µM	≥ 64 µM	≥ 64 µM	> 64 µM	≥ 64 µM	> 64 µM	≥ 64 µM	≥ 64 µM	> 64 µM	≥ 64 µM	–
CC[C@H](C)[C@H](N)C(=O)N[C@@H](CCCN=C(N)N)C(=O)N1CCC[C@H]1C(=O)N[C@H](C(=O)N[C@H](C(=O)N[C@@H](CCCN=C(N)N)C(=O)N1CCC[C@H]1C(=O)N[C@H](C(=O)N[C@H](C(=O)N[C@@H](CCCN=C(N)N)C(=O)N1CCC[C@H]1C(=O)N[C@H](C(=O)N[C@H](C(=O)N[C@@H](CCCN=C(N)N)C(=O)N1CCC[C@H]1C(=O)N[C@H](C(=O)N[C@H](C(=O)N[C@@H](CCCN=C(N)N)C(=O)N1CCC[C@H]1C(=O)N[C@H](C(N)=O)[C@@H](C)CC)[C@@H](C)CC)[C@@H](C)CC)[C@@H](C)CC)[C@@H](C)CC)[C@@H](C)CC)[C@@H](C)CC)[C@@H](C)CC)[C@@H](C)CC [IRPIIRPIIRPIIRPIIRPI]	–	–	–	32 µM (≈ 77.3 µg/mL)	–	8 µM (≈ 19.3 µg/mL)	8 µM (≈ 19.3 µg/mL)	64 µM (≈ 155 µg/mL)	≥ 64 µM	1 µM (≈ 2.42 µg/mL)	4 µM (≈ 9.66 µg/mL)	≥ 64 µM	8 µM (≈ 19.3 µg/mL)	4 µM (≈ 9.66 µg/mL)	8 µM (≈ 19.3 µg/mL)	8 µM (≈ 19.3 µg/mL)	4 µM (≈ 9.66 µg/mL)	> 64 µM	16 µM (≈ 38.6 µg/mL)	–
CC(C)C[C@H](NC(=O)[C@@H]1CCCN1C(=O)[C@H](CCCCN)NC(=O)[C@H](CC(C)C)NC(=O)[C@H](CC(C)C)NC(=O)[C@@H]1CCCN1C(=O)[C@H](CCCCN)NC(=O)[C@H](CC(C)C)NC(=O)[C@H](CC(C)C)NC(=O)[C@@H]1CCCN1C(=O)[C@H](CCCCN)NC(=O)[C@H](CC(C)C)NC(=O)[C@H](CC(C)C)NC(=O)[C@@H]1CCCN1C(=O)[C@H](CCCCN)NC(=O)[C@H](CC(C)C)NC(=O)[C@H](CC(C)C)NC(=O)[C@@H]1CCCN1C(=O)[C@H](CCCCN)NC(=O)[C@H](CC(C)C)NC(=O)[C@H](CC(C)C)NC(=O)[C@@H]1CCCN1C(=O)[C@H](CCCCN)NC(=O)[C@H](CC(C)C)NC(=O)[C@H](CC(C)C)NC(=O)[C@@H]1CCCN1C(=O)[C@H](CCCCN)NC(=O)[C@@H](N)CC(C)C)C(N)=O [LKPLLKPLLKPLLKPLLKPLLKPLLKPL]	–	–	–	2 µM (≈ 6.36 µg/mL)	–	0.5 µM (≈ 1.59 µg/mL)	2 µM (≈ 6.36 µg/mL)	1 µM (≈ 3.18 µg/mL)	8 µM (≈ 25.4 µg/mL)	0.5 µM (≈ 1.59 µg/mL)	1 µM (≈ 3.18 µg/mL)	2 µM (≈ 6.36 µg/mL)	1 µM (≈ 3.18 µg/mL)	1 µM (≈ 3.18 µg/mL)	1 µM (≈ 3.18 µg/mL)	2 µM (≈ 6.36 µg/mL)	1 µM (≈ 3.18 µg/mL)	5.66 µM (≈ 18 µg/mL)	2 µM (≈ 6.36 µg/mL)	–
CC[C@H](C)[C@@H]1NC(=O)[C@H](CO)NC(=O)[C@H](CCCCN)NC(=O)[C@H]([C@@H](C)O)NC(=O)[C@H](Cc2c[nH]c3ccccc23)NC(=O)[C@@H](NC(=O)[C@H](CCCN=C(N)N)NC(=O)[C@H](CCCN=C(N)N)NC(=O)[C@H](CCCN=C(N)N)NC(=O)[C@H](CCC(N)=O)NC(=O)[C@H](CCCN=C(N)N)NC(=O)[C@H](CCCN=C(N)N)NC(=O)[C@H](CCCCN)NC(=O)[C@H](CCCCN)NC(=O)[C@@H](N)CCCN=C(N)N)CSSC[C@@H](C(=O)O)NC(=O)[C@@H]2CCCN2C(=O)[C@H](CCCCN)NC(=O)[C@@H]2CCCN2C(=O)[C@@H]2CCCN2C1=O [RKKRRQRRRCWTKSIPPKPC]	≥ 128 µM	≥ 128 µM	–	256 µM (≈ 660 µg/mL)	≥ 256 µM	–	–	–	–	–	–	–	–	–	–	–	–	–	–	MIC [1]: 4 µM (≈ 10.3 µg/mL)

Further lines, with some results ahead:

MIC [3]	MIC [4]	MIC [5]	MIC [6]	MIC [7]	MIC [9]	MIC (Escherichia coli)	MIC [10]	MIC [11]	MIC (Escherichia coli K88)	MIC (Acinetobacter baumannii)	MIC [12]	MIC (Klebsiella pneumoniae)	MIC (Escherichia coli UB1005)	MIC [13]	MIC [14]	MIC (Escherichia coli K99)	MIC (Pseudomonas aeruginosa)	MIC [15]	SMILES	other results
22.6 µM (≈ 52.3 µg/mL)	≥ 512 µM	≥ 128 µM	> 512 µM	–	–	–	–	–	–	–	–	–	–	–	–	–	–	–	CC[C@H](C)[C@H](NC(=O)CNC(=O)[C@H](CCC(N)=O)NC(=O)[C@@H](NC(=O)[C@H](C)NC(=O)[C@H](Cc1cnc[nH]1)NC(=O)[C@@H]1CCCN1C(=O)[C@@H](NC(=O)[C@H](CC(C)C)NC(=O)[C@@H]1CCCN1C(=O)[C@@H](NC(=O)[C@H](CC(C)C)NC(=O)[C@H](Cc1cnc[nH]1)NC(=O)[C@H](CCC(N)=O)NC(=O)[C@@H](NC(=O)[C@@H](N)Cc1ccccc1)[C@@H](C)CC)[C@@H](C)CC)[C@@H](C)CC)[C@@H](C)CC)C(=O)N[C@@H](CCCCN)C(=O)N[C@@H](CC(=O)O)C(=O)N[C@H](C(=O)N[C@@H](Cc1ccccc1)C(N)=O)[C@@H](C)CC [FIQHLIPLIPHAIQGIKDIF]	MIC [1]: ≥ 90.5 µM; MIC [2]: ≥ 45.3 µM
≥ 256 µM	≥ 512 µM	≥ 512 µM	> 512 µM	≥ 512 µM	–	–	–	–	–	–	–	–	–	–	–	–	–	–	CC[C@H](C)[C@H](NC(=O)CNC(=O)[C@@H]1CCCN1C(=O)[C@H](CC(C)C)NC(=O)[C@@H](N)Cc1ccccc1)C(=O)N[C@@H](CC(C)C)C(=O)N[C@@H](CCCCN)C(=O)N[C@H](C(=O)N[C@@H](C)C(=O)N[C@@H](C)C(=O)N[C@@H](CCCCN)C(N)=O)C(C)C [FLPGILKVAAK]	MIC [8]: ≥ 512 µM
–	–	–	4 µM (≈ 10.9 µg/mL)	–	1 µM (≈ 2.73 µg/mL)	2 µM (≈ 5.45 µg/mL)	4 µM (≈ 10.9 µg/mL)	≥ 64 µM	1 µM (≈ 2.73 µg/mL)	4 µM (≈ 10.9 µg/mL)	≥ 32 µM	8 µM (≈ 21.8 µg/mL)	2 µM (≈ 5.45 µg/mL)	4 µM (≈ 10.9 µg/mL)	4 µM (≈ 10.9 µg/mL)	2 µM (≈ 5.45 µg/mL)	45.3 µM (≈ 123 µg/mL)	8 µM (≈ 21.8 µg/mL)	CC(C)C[C@H](NC(=O)[C@@H]1CCCN1C(=O)[C@H](CCCCN)NC(=O)[C@H](CC(C)C)NC(=O)[C@H](CC(C)C)NC(=O)[C@@H]1CCCN1C(=O)[C@H](CCCCN)NC(=O)[C@H](CC(C)C)NC(=O)[C@H](CC(C)C)NC(=O)[C@@H]1CCCN1C(=O)[C@H](CCCCN)NC(=O)[C@H](CC(C)C)NC(=O)[C@H](CC(C)C)NC(=O)[C@@H]1CCCN1C(=O)[C@H](CCCCN)NC(=O)[C@H](CC(C)C)NC(=O)[C@H](CC(C)C)NC(=O)[C@@H]1CCCN1C(=O)[C@H](CCCCN)NC(=O)[C@H](CC(C)C)NC(=O)[C@H](CC(C)C)NC(=O)[C@@H]1CCCN1C(=O)[C@H](CCCCN)NC(=O)[C@@H](N)CC(C)C)C(N)=O [LKPLLKPLLKPLLKPLLKPLLKPL]	–
8 µM (≈ 13.7 µg/mL)	16 µM (≈ 27.5 µg/mL)	≥ 32 µM	64 µM (≈ 110 µg/mL)	16 µM (≈ 27.5 µg/mL)	–	–	–	–	–	–	–	–	–	–	–	–	–	–	CC(C)C[C@H](NC(=O)[C@H](C)NC(=O)[C@H](C)NC(=O)[C@H](CC(C)C)NC(=O)[C@H](CC(N)=O)NC(=O)[C@@H](NC(=O)[C@@H](NC(=O)[C@H](CC(C)C)NC(=O)[C@H](CCCCN)NC(=O)[C@H](CCCCN)NC(=O)[C@@H](NC(=O)[C@@H](NC(=O)[C@@H](NC(=O)[C@H](CC(C)C)NC(=O)[C@H](Cc1ccccc1)NC(=O)[C@@H](N)CO)[C@@H](C)O)[C@@H](C)O)C(C)C)C(C)C)[C@@H](C)O)C(N)=O [SFLTTVKKLVTNLAAL]	MIC [8]: 16 µM (≈ 27.5 µg/mL)
